Numbers after ± are expanded uncertainties.

A short description of the first data set: activity coefficient (dimensionless); of the first substance listed, at infinite dilution; xn = mol fraction of the nth substance listed. As to conditions: 318.15 K; Liquid; Chromatography; x1 = 0.
As to `C#CCCCC` [1-hexyne] + COCC[N+]1(C)CCOCC1.O=S(=O)([N-]S(=O)(=O)C(F)(F)F)C(F)(F)F, the activity coefficient was determined as 4.88 ± 0.33.

In the case of `CCC(=O)OC` [methyl propanoate] + COCC[N+]1(C)CCOCC1.O=S(=O)([N-]S(=O)(=O)C(F)(F)F)C(F)(F)F, the activity coefficient amounted to 0.949 ± 0.06.

On to `CCC(C)(C)OC` [2-methoxy-2-methylbutane] + COCC[N+]1(C)CCOCC1.O=S(=O)([N-]S(=O)(=O)C(F)(F)F)C(F)(F)F, for which the activity coefficient was 5.55 ± 0.38.

Turning to `Cc1ccccc1C` [1,2-dimethylbenzene] + COCC[N+]1(C)CCOCC1.O=S(=O)([N-]S(=O)(=O)C(F)(F)F)C(F)(F)F, the activity coefficient was found to be 2.75 ± 0.19.

`CCC(C)O` (configuration not stated) [butan-2-ol] + COCC[N+]1(C)CCOCC1.O=S(=O)([N-]S(=O)(=O)C(F)(F)F)C(F)(F)F: the activity coefficient was found to be 2.76 ± 0.19.

As to `c1ccncc1` [pyridine] + COCC[N+]1(C)CCOCC1.O=S(=O)([N-]S(=O)(=O)C(F)(F)F)C(F)(F)F, the activity coefficient was found to be 0.64 ± 0.044.

Regarding `CCCCO` [butan-1-ol] + COCC[N+]1(C)CCOCC1.O=S(=O)([N-]S(=O)(=O)C(F)(F)F)C(F)(F)F, the activity coefficient is 3.31 ± 0.23.

In the case of `CCC(C)CC` [3-methylpentane] + COCC[N+]1(C)CCOCC1.O=S(=O)([N-]S(=O)(=O)C(F)(F)F)C(F)(F)F, the activity coefficient was 32.3 ± 2.2.

With `C1CCCCCC1` [cycloheptane] + COCC[N+]1(C)CCOCC1.O=S(=O)([N-]S(=O)(=O)C(F)(F)F)C(F)(F)F, the activity coefficient is 26.2 ± 1.8.

With `O` [water] + COCC[N+]1(C)CCOCC1.O=S(=O)([N-]S(=O)(=O)C(F)(F)F)C(F)(F)F, the activity coefficient worked out at 2.49 ± 0.17.

In the case of `CCCCC` [pentane] + COCC[N+]1(C)CCOCC1.O=S(=O)([N-]S(=O)(=O)C(F)(F)F)C(F)(F)F, the activity coefficient was 25 ± 1.7.

Turning to `CCCCCCCC` [octane] + COCC[N+]1(C)CCOCC1.O=S(=O)([N-]S(=O)(=O)C(F)(F)F)C(F)(F)F, the activity coefficient stood at 82.1 ± 5.6.

Take `C#CCCCCC` [1-heptyne] + COCC[N+]1(C)CCOCC1.O=S(=O)([N-]S(=O)(=O)C(F)(F)F)C(F)(F)F: the activity coefficient is 7.44 ± 0.51.

As for `CCCC(C)=O` [pentan-2-one] + COCC[N+]1(C)CCOCC1.O=S(=O)([N-]S(=O)(=O)C(F)(F)F)C(F)(F)F, the activity coefficient worked out at 0.88 ± 0.056.

For the compound `CCO` [ethanol] + COCC[N+]1(C)CCOCC1.O=S(=O)([N-]S(=O)(=O)C(F)(F)F)C(F)(F)F, the activity coefficient turned out to be 1.77 ± 0.12.

As to `CCOCC` [diethyl ether] + COCC[N+]1(C)CCOCC1.O=S(=O)([N-]S(=O)(=O)C(F)(F)F)C(F)(F)F, the activity coefficient was found to be 3.49 ± 0.24.

For `C=Cc1ccccc1` [styrene] + COCC[N+]1(C)CCOCC1.O=S(=O)([N-]S(=O)(=O)C(F)(F)F)C(F)(F)F, the activity coefficient turned out to be 1.77 ± 0.12.

As for `CC(C)=O` [acetone] + COCC[N+]1(C)CCOCC1.O=S(=O)([N-]S(=O)(=O)C(F)(F)F)C(F)(F)F, the activity coefficient amounted to 0.43 ± 0.035.

For the compound `CCCOCCC` [dipropyl ether] + COCC[N+]1(C)CCOCC1.O=S(=O)([N-]S(=O)(=O)C(F)(F)F)C(F)(F)F, the activity coefficient was found to be 10.7 ± 0.7.

In the case of `CCc1ccccc1` [ethylbenzene] + COCC[N+]1(C)CCOCC1.O=S(=O)([N-]S(=O)(=O)C(F)(F)F)C(F)(F)F, the activity coefficient stood at 3.27 ± 0.22.

As for `COC(C)(C)C` [2-methoxy-2-methylpropane] + COCC[N+]1(C)CCOCC1.O=S(=O)([N-]S(=O)(=O)C(F)(F)F)C(F)(F)F, the activity coefficient was found to be 3.53 ± 0.24.

Take `CC(C)CO` [2-methyl-1-propanol] + COCC[N+]1(C)CCOCC1.O=S(=O)([N-]S(=O)(=O)C(F)(F)F)C(F)(F)F: the activity coefficient amounted to 3.19 ± 0.22.

For the compound `CC(C)CC(C)(C)C` [2,2,4-trimethylpentane] + COCC[N+]1(C)CCOCC1.O=S(=O)([N-]S(=O)(=O)C(F)(F)F)C(F)(F)F, the activity coefficient was 55.9 ± 3.8.

The same data set, now with this note: 328.15 K; Liquid; Chromatography; x1 = 0.
With `C#CCCCC` [1-hexyne] + COCC[N+]1(C)CCOCC1.O=S(=O)([N-]S(=O)(=O)C(F)(F)F)C(F)(F)F, the activity coefficient worked out at 4.8 ± 0.33.

For `CCC(=O)OC` [methyl propanoate] + COCC[N+]1(C)CCOCC1.O=S(=O)([N-]S(=O)(=O)C(F)(F)F)C(F)(F)F, the activity coefficient turned out to be 0.966 ± 0.061.

Take `C=C(C)c1ccccc1` [(1-methylethenyl)benzene] + COCC[N+]1(C)CCOCC1.O=S(=O)([N-]S(=O)(=O)C(F)(F)F)C(F)(F)F: the activity coefficient stood at 2.74 ± 0.19.

`CCC(C)(C)OC` [2-methoxy-2-methylbutane] + COCC[N+]1(C)CCOCC1.O=S(=O)([N-]S(=O)(=O)C(F)(F)F)C(F)(F)F: the activity coefficient was 5.5 ± 0.37.

For `Cc1ccccc1C` [1,2-dimethylbenzene] + COCC[N+]1(C)CCOCC1.O=S(=O)([N-]S(=O)(=O)C(F)(F)F)C(F)(F)F, the activity coefficient came to 2.71 ± 0.18.

As to `CCC(C)O` (configuration not stated) [butan-2-ol] + COCC[N+]1(C)CCOCC1.O=S(=O)([N-]S(=O)(=O)C(F)(F)F)C(F)(F)F, the activity coefficient was 2.47 ± 0.17.

In the case of `CC(=O)O` [acetic acid] + COCC[N+]1(C)CCOCC1.O=S(=O)([N-]S(=O)(=O)C(F)(F)F)C(F)(F)F, the activity coefficient stood at 0.451 ± 0.036.

For the compound `c1ccncc1` [pyridine] + COCC[N+]1(C)CCOCC1.O=S(=O)([N-]S(=O)(=O)C(F)(F)F)C(F)(F)F, the activity coefficient came to 0.644 ± 0.044.

In the case of `CCCCO` [butan-1-ol] + COCC[N+]1(C)CCOCC1.O=S(=O)([N-]S(=O)(=O)C(F)(F)F)C(F)(F)F, the activity coefficient worked out at 2.94 ± 0.2.

Turning to `CCC(C)CC` [3-methylpentane] + COCC[N+]1(C)CCOCC1.O=S(=O)([N-]S(=O)(=O)C(F)(F)F)C(F)(F)F, the activity coefficient turned out to be 29 ± 2.

`C1CCCCCC1` [cycloheptane] + COCC[N+]1(C)CCOCC1.O=S(=O)([N-]S(=O)(=O)C(F)(F)F)C(F)(F)F: the activity coefficient is 23.6 ± 1.6.

Consider `O` [water] + COCC[N+]1(C)CCOCC1.O=S(=O)([N-]S(=O)(=O)C(F)(F)F)C(F)(F)F, for which the activity coefficient came to 2.17 ± 0.15.

On to `CCCCC` [pentane] + COCC[N+]1(C)CCOCC1.O=S(=O)([N-]S(=O)(=O)C(F)(F)F)C(F)(F)F, for which the activity coefficient was determined as 22.5 ± 1.5.

For `CCCCCCCC` [octane] + COCC[N+]1(C)CCOCC1.O=S(=O)([N-]S(=O)(=O)C(F)(F)F)C(F)(F)F, the activity coefficient came out at 71.6 ± 4.9.
